Source: ChEMBL document CHEMBL4270599, “Synthesis of a 3'-C-ethynyl-β-d-ribofuranose purine nucleoside library: Discovery of C7-deazapurine analogs as potent antiproliferative nucleosides” (Eur J Med Chem, 2018)

Legend:
Format in all cases: functional
[1] = tested on: NCI/ADR-RES; experiment: Growth inhibition of human NCI/ADR-RES cells assessed as cell growth at 10^-6 M incubated for 48 hrs by sulforhodamine B assay relative to control; settings: read-out: Activity
[2] = tested on: 786-0; experiment: Growth inhibition of human 786-0 cells assessed as cell growth at 10^-8 M incubated for 48 hrs by sulforhodamine B assay relative to control; settings: 786-0, 48 h, read-out: Activity
[3] = tested on: RXF 393; experiment: Growth inhibition of human RXF393 cells assessed as cell growth at 10^-8 M incubated for 48 hrs by sulforhodamine B assay relative to control; settings: RXF 393, 48 h, read-out: Activity
[4] = tested on: UACC-257; experiment: Growth inhibition of human UACC257 cells assessed as cell growth at 10^-6 M incubated for 48 hrs by sulforhodamine B assay relative to control; settings: UACC-257, 48 h, read-out: Activity
[5] = tested on: UACC-257; experiment: Growth inhibition of human UACC257 cells assessed as cell growth at 10^-5 M incubated for 48 hrs by sulforhodamine B assay relative to control; settings: UACC-257, 48 h, read-out: Activity
[6] = tested on: BT-549; experiment: Growth inhibition of human BT549 cells assessed as cell growth at 10^-6 M incubated for 48 hrs by sulforhodamine B assay relative to control; settings: BT-549, 48 h, read-out: Activity
[7] = tested on: NCI-H23; experiment: Growth inhibition of human NCI-H23 cells assessed as cell growth at 10^-8 M incubated for 48 hrs by sulforhodamine B assay relative to control; settings: NCI-H23, 48 h, read-out: Activity
[8] = tested on: BT-549; experiment: Growth inhibition of human BT549 cells assessed as cell growth at 10^-5 M incubated for 48 hrs by sulforhodamine B assay relative to control; settings: BT-549, 48 h, read-out: Activity
[9] = tested on: HL-60(TB); experiment: Growth inhibition of human HL-60(TB) cells assessed as cell growth at 10^-5 M incubated for 48 hrs by sulforhodamine B assay relative to control; settings: HL-60, 48 h, read-out: Activity
[10] = tested on: UACC-257; experiment: Cytotoxicity against human UACC257 cells after 48 hrs by SRB assay; settings: UACC-257, 48 h; for GI50: read-out: pGI50 (converted)
[11] = tested on: UACC-62; experiment: Cytotoxicity against human UACC62 cells after 48 hrs by SRB assay; settings: UACC-62, 48 h; for GI50: read-out: pGI50 (converted); for CC50: read-out: pLC50 (the source's name) (converted)
[12] = tested on: MDA-MB-435; experiment: Cytotoxicity against human MDA-MB-435 cells after 48 hrs by SRB assay; settings: MDA-MB-435, 48 h; for GI50: read-out: pGI50 (converted); for CC50: read-out: pLC50 (the source's name) (converted)
[13] = tested on: SR; experiment: Cytotoxicity against human SR cells after 48 hrs by SRB assay; settings: for GI50: read-out: pGI50 (converted)
[14] = tested on: DU-145; experiment: Growth inhibition of human DU145 cells assessed as cell growth at 10^-8 M incubated for 48 hrs by sulforhodamine B assay relative to control; settings: DU-145, 48 h, read-out: Activity
[15] = tested on: MDA-MB-435; experiment: Growth inhibition of human MDA-MB-435 cells assessed as cell growth at 10^-5 M incubated for 48 hrs by sulforhodamine B assay relative to control; settings: MDA-MB-435, 48 h, read-out: Activity
[16] = tested on: T47D; experiment: Growth inhibition of human T47D cells assessed as cell growth at 10^-8 M incubated for 48 hrs by sulforhodamine B assay relative to control; settings: read-out: Activity
[17] = tested on: MDA-MB-468; experiment: Growth inhibition of human MDA-MB-468 cells assessed as cell growth at 10^-7 M incubated for 48 hrs by sulforhodamine B assay relative to control; settings: MDA-MB-468, 48 h, read-out: Activity
[18] = tested on: U-251; experiment: Growth inhibition of human U251 cells assessed as cell growth at 10^-8 M incubated for 48 hrs by sulforhodamine B assay relative to control; settings: U-251, 48 h, read-out: Activity
[19] = tested on: HL-60(TB); experiment: Growth inhibition of human HL-60(TB) cells assessed as cell growth at 10^-6 M incubated for 48 hrs by sulforhodamine B assay relative to control; settings: HL-60, 48 h, read-out: Activity
[20] = tested on: Hs-578T; experiment: Growth inhibition of human Hs 578T cells assessed as cell growth at 10^-8 M incubated for 48 hrs by sulforhodamine B assay relative to control; settings: read-out: Activity
[21] = tested on: PC-3; experiment: Growth inhibition of human PC3 cells assessed as cell growth at 10^-4 M incubated for 48 hrs by sulforhodamine B assay relative to control; settings: PC-3, 48 h, read-out: Activity
[22] = tested on: KM12; experiment: Cytotoxicity against human KM12 cells after 48 hrs by SRB assay; settings: KM12, 48 h
[23] = tested on: OVCAR-8; experiment: Growth inhibition of human OVCAR8 cells assessed as cell growth at 10^-6 M incubated for 48 hrs by sulforhodamine B assay relative to control; settings: OVCAR-8, 48 h, read-out: Activity
[24] = tested on: HCT-116; experiment: Growth inhibition of human HCT116 cells assessed as cell growth at 10^-7 M incubated for 48 hrs by sulforhodamine B assay relative to control; settings: HCT-116, 48 h, read-out: Activity
[25] = tested on: OVCAR-4; experiment: Growth inhibition of human OVCAR4 cells assessed as cell growth at 10^-6 M incubated for 48 hrs by sulforhodamine B assay relative to control; settings: OVCAR-4, 48 h, read-out: Activity
[26] = tested on: T47D; experiment: Growth inhibition of human T47D cells assessed as cell growth at 10^-7 M incubated for 48 hrs by sulforhodamine B assay relative to control; settings: read-out: Activity
[27] = tested on: SK-OV-3; experiment: Growth inhibition of human SKOV3 cells assessed as cell growth at 10^-4 M incubated for 48 hrs by sulforhodamine B assay relative to control; settings: SK-OV-3, 48 h, read-out: Activity
[28] = tested on: EKVX; experiment: Growth inhibition of human EKVX cells assessed as cell growth at 10^-6 M incubated for 48 hrs by sulforhodamine B assay relative to control; settings: read-out: Activity
[29] = tested on: MDA-MB-435; experiment: Growth inhibition of human MDA-MB-435 cells assessed as cell growth at 10^-8 M incubated for 48 hrs by sulforhodamine B assay relative to control; settings: MDA-MB-435, 48 h, read-out: Activity
[30] = tested on: MOLT-4; experiment: Cytotoxicity against human MOLT4 cells after 48 hrs by SRB assay; settings: MOLT-4, 48 h; for GI50: read-out: pGI50 (converted)
[31] = tested on: IGROV-1; experiment: Growth inhibition of human IGROV1 cells assessed as cell growth at 10^-7 M incubated for 48 hrs by sulforhodamine B assay relative to control; settings: IGROV-1, 48 h, read-out: Activity
[32] = tested on: SK-OV-3; experiment: Growth inhibition of human SKOV3 cells assessed as cell growth at 10^-7 M incubated for 48 hrs by sulforhodamine B assay relative to control; settings: SK-OV-3, 48 h, read-out: Activity
[33] = tested on: HCT-116; experiment: Growth inhibition of human HCT116 cells assessed as cell growth at 10^-8 M incubated for 48 hrs by sulforhodamine B assay relative to control; settings: HCT-116, 48 h, read-out: Activity
[34] = read-out: LC50 (the source's name)
[35] = read-out: pLC50 (the source's name) (converted)

C#C[C@@]1(O)[C@@H](CO)O[C@@H](n2cc(F)c3c(N)ncnc32)[C@@H]1O
growth at 1 µM [1]: 22% | growth at 0.01 µM [2]: 94% | growth at 0.01 µM [3]: 94% | growth at 1 µM [4]: 34% | growth at 10 µM [5]: -17% | growth at 1 µM [6]: 45% | growth at 0.01 µM [7]: 97% | growth at 10 µM [8]: -28% | growth at 10 µM [9]: -17% | CC50 [10, 34]: > 100 µM | TGI ([10]; read-out: TGI): 4.64 µM | GI50 [10]: 0.49 µM | TGI ([10]; read-out: pTGI (converted)): 4.68 µM | TGI ([11]; read-out: TGI): 1.47 µM | GI50 [11]: 0.331 µM | CC50 [11]: 7.24 µM | TGI ([11]; read-out: pTGI (converted)): 1.48 µM | TGI ([12]; read-out: TGI): 3.26 µM | GI50 [12]: 0.417 µM | CC50 [12]: 45.7 µM | TGI ([12]; read-out: pTGI (converted)): 3.24 µM | CC50 [13, 34]: > 100 µM | TGI ([13]; read-out: TGI): > 100 µM | GI50 [13]: 0.186 µM | TGI ([13]; read-out: pTGI): > 100 µM | growth at 0.01 µM [14]: 103% | growth at 10 µM [15]: -26% | growth at 0.01 µM [16]: 101% | growth at 0.1 µM [17]: 84% | growth at 0.01 µM [18]: 97% | growth at 1 µM [19]: 20% | growth at 0.01 µM [20]: 92% | growth at 100 µM [21]: -31% | CC50 [22, 34]: > 100 µM | TGI ([22]; read-out: TGI): 24.9 µM | GI50 ([22]; read-out: pGI50 (converted)): 0.501 µM | TGI ([22]; read-out: pTGI (converted)): 25.1 µM | growth at 1 µM [23]: 15% | growth at 0.1 µM [24]: 60% | growth at 1 µM [25]: 50% | growth at 0.1 µM [26]: 80% | growth at 100 µM [27]: -30% | growth at 1 µM [28]: 43% | growth at 0.01 µM [29]: 98% | TGI ([30]; read-out: TGI): > 100 µM | GI50 [30]: 0.302 µM | CC50 [30, 35]: > 100 µM | TGI ([30]; read-out: pTGI (converted)): > 100 µM | growth at 0.1 µM [31]: 96% | growth at 0.1 µM [32]: 81% | growth at 0.01 µM [33]: 98%

C#C[C@@]1(O)[C@@H](CO)O[C@@H](n2ccc3c(N)ncnc32)[C@@H]1O
growth at 1 µM [1]: 45% | growth at 0.01 µM [2]: 91% | growth at 0.01 µM [3]: 99% | growth at 1 µM [4]: 88% | growth at 10 µM [5]: -16% | growth at 1 µM [6]: 80% | growth at 0.01 µM [7]: 95% | growth at 10 µM [8]: -63% | growth at 10 µM [9]: -24% | TGI ([10]; read-out: TGI): 7.05 µM | GI50 [10]: 2.29 µM | CC50 [10, 35]: 55 µM | TGI ([10]; read-out: pTGI (converted)): 7.08 µM | TGI ([11]; read-out: TGI): 4.48 µM | GI50 [11]: 1.78 µM | CC50 [11]: 19.5 µM | TGI ([11]; read-out: pTGI (converted)): 4.47 µM | TGI ([12]; read-out: TGI): 3.49 µM | GI50 [12]: 1.48 µM | CC50 [12]: 8.13 µM | TGI ([12]; read-out: pTGI (converted)): 3.47 µM | TGI ([13]; read-out: TGI): > 100 µM | GI50 [13]: 0.813 µM | CC50 [13, 35]: > 100 µM | TGI ([13]; read-out: pTGI): > 100 µM | growth at 0.01 µM [14]: 103% | growth at 10 µM [15]: -62% | growth at 0.01 µM [16]: 92% | growth at 0.1 µM [17]: 97% | growth at 0.01 µM [18]: 102% | growth at 1 µM [19]: 68% | growth at 0.01 µM [20]: 97% | growth at 100 µM [21]: -62% | TGI ([22]; read-out: TGI): 10.9 µM | CC50 [22, 35]: 91.2 µM | TGI ([22]; read-out: pTGI (converted)): 11 µM | growth at 1 µM [23]: 51% | growth at 0.1 µM [24]: 92% | growth at 1 µM [25]: 75% | growth at 0.1 µM [26]: 86% | growth at 100 µM [27]: -11% | growth at 1 µM [28]: 67% | growth at 0.01 µM [29]: 92% | CC50 [30, 34]: > 100 µM | TGI ([30]; read-out: TGI): > 100 µM | GI50 [30]: 0.617 µM | TGI ([30]; read-out: pTGI (converted)): > 100 µM | growth at 0.1 µM [31]: 100% | growth at 0.1 µM [32]: 92% | growth at 0.01 µM [33]: 91%
